Entries after “also recorded” stand apart in the source; their conditions may differ. Read-outs that look alike come from different tables or passages of the source. Where a SMILES comes first, the peptide text is derived from it. Bridges are numbered along the chain shown (N, C = ends).

We go through 2 compounds from US7314858B2, “Retrocyclins: antiviral and antimicrobial peptides” (priority 2001, dated 2008).

One data set concerns human red blood cells. Nature of the data set: Hemagglutination of washed red blood cells in PBS. To be noted: washed human red blood cells in PBS. The protocol:
Hemagglutination was tested by adding the stated concentration of peptide to a well comprising red blood cells (shown in FIG. 22). When the RBC are agglutinated, they clump together and settle rapidly and form a diffuse circle covering much of the bottom of the well. In the absence of agglutination, they settle more slowly and form a compact red button in the center of the well.
Sequences of retrocyclin-related peptides that were synthesized and either tested for activity against HIV-1 (see FIGS. 21A and 21B) and/or for their ability to cause human red blood cells to hemagglutinate or both. NT signifies not tested. Linear sequences appear in the table, but all peptides were cyclic and contained three intramolecular disulfide bonds. Hemagglutination of washed human red blood cells was tested in PBS, at peptide concentrations of 50, 25, 12.5 6.25 and 3.12 μg/ml. The lowest concentrations that caused hemagglutination are shown. Peptide concentrations were determined by amino acid analysis or by AUC (area under the curve) RP-HPLC analysis with reference to amino-acid analyzed standards.

The next data set concerns CD4+ PBMC. The note with it: for average number of cells: 20 μg/ml peptide, CD4+ PBMC; for cytotoxicity (trypan blue exclusion): 20 μg/ml, HIV-1-infected CD4+ PBMC.
Another data set has as its system HSV-1. The experiment in a line: HSV inactivation microplate assay on ME-180 cells (MTT). The format is cell-based, herpes simplex virus, type 1. To be noted: 2-50 μg/ml, 2 hrs with virus, 72 hrs culture. The protocol: FIG. 14. Inactivation of HSV-1 and HSV-2 by retrocyclin and RC-101. Retrocyclin (left panel) and RC-101 (right panel) at the indicated concentrations were incubated with herpes simplex virus, type 1 (HSV-1) or HSV-2 for 2 hrs and then added to ME-180 cell monolayers. Cells were incubated at 37° C. for 72 hrs, and cytotoxicity was measured with an MTT kit.
Some retrocyclins are slightly active against herpes simplex virus (HSV). To determine if the activity of retrocyclin against HIV-1 was specific or representative of a more global antiviral effect, it was tested its ability to prevent HSV infection in vitro. A quantitative microplate assay was used to screen retrocyclin and retrocyclin-congeners for their ability to inactivate HSV type 1 (HSV-1) and HSV-2. The assay utilized small amounts of peptide and simultaneously evaluated for peptide-induced cytotoxicity. In brief, final peptide concentrations of 2-50 μg/ml were incubated with virus stocks for 2 hrs and added directly to ME-180 human cervical carcinoma cells. Cultures were incubated at 37° C. for 72 hrs and cytotoxicity was measured using a 3-(4,5-dimethylthiazon-2-yl)-2,5-diphenyltetrazolium bromide (MTT) cell proliferation kit (Boehringer-Mannheim, Germany). Calculations to assess antiviral activity and compute “percent protection” are delineated in (90).

The next data set deals with HIV-1 strain JR-CSF. Nature of the data set: HIV proviral DNA formation, quantitative real time PCR in CD4+-selected PBMC. It counts as cell-based. The note with it: 20 μg/ml, MOI 0.1. The text has this:
FIG. 13. Retrocyclin and RC-101 inhibited the formation of HIV proviral DNA. Retrocyclin and RC-101 inhibited the formation of DNA from both early events (total HIV DNA) and later events (full-length HIV DNA) of reverse transcription. Data are an average of 2 experiments, except for RC-101 (1 experiment). “HI virus” is a heat-inactivated virus control for background levels of viral DNA.
Retrocyclin inhibits HIV replication at an early step (reverse transcription or before). To determine whether retrocyclin blocked the formation of proviral DNA in HIV-JR-CSF-inoculated CD4^+-selected PBMC, quantitative real time PCR was performed. This method is more sensitive than measuring p24 release and can detect infection even when p24 values may be affected by virus carried over from the original inoculum. CD4^+-selected PBMC (10^6 cells) were incubated in 250 μl at 37° C./5% CO2 for 3 hr with either HIV-1 strain JR-CSF (MOI=0.1), heat-inactivated virus (background control), JR-CSF+20 μg/ml retrocyclin or JR-CSF+20 μg RC-101. Cells were washed and resuspended in 1 ml R10-50 media, and incubated for an additional 9 hours. Following incubation, cells were pelleted at 300×g, removed of overlying supernatant, and stored at −80° C. until analyzed by real time PCR.

`CC[C@H](C)[C@@H]1NC(=O)CNC(=O)[C@H](CCCNC(=N)N)NC(=O)CNC(=O)[C@@H]2CSSC[C@H](NC1=O)C(=O)N[C@@H](CCCNC(=N)N)C(=O)N[C@H]1CSSC[C@H](NC(=O)[C@H](CCCNC(=N)N)NC(=O)[C@@H]3CSSC[C@H](NC(=O)[C@H]([C@@H](C)CC)NC1=O)C(=O)NCC(=O)N[C@@H](CCCNC(=N)N)C(=O)NCC(=O)N[C@@H]([C@@H](C)CC)C(=O)N3)C(=O)N[C@@H]([C@@H](C)CC)C(=O)N2` [RC-100, Retrocyclin] (cyclo(GICRCICGRGICRCICGR); disulfide 3-16, 5-14, 7-12): the “Hemagglutination seen at a concentration of (lowest concentration that caused hemagglutination)” value with human red blood cells lay in the range of 6 to 12.5 µg/mL. The entries for the “average number of cells” value in the data set on CD4+ PBMC (IIIB), in the data set with CD4+ PBMC (JR-CSF) and with CD4+ PBMC (no virus) were 1.68e+06 mL⁻¹, 1.58e+06 mL⁻¹ and 980000 mL⁻¹, respectively. Also, the “cytotoxicity (trypan blue exclusion)” value in the data set on CD4+ PBMC is “neither 20 μg/ml retrocyclin nor RC-101 were cytotoxic”. Besides, the “protection against HSV-1” value with HSV-1 is “not HSV-1”. For the same compound, the “formation of HIV-1 proviral DNA” value with HIV-1 strain JR-CSF was “inhibited the formation of HIV-1 proviral DNA”.
On to `CC[C@H](C)[C@@H]1NC(=O)CNC(=O)[C@H](CCCCN)NC(=O)CNC(=O)[C@@H]2CSSC[C@H](NC1=O)C(=O)N[C@@H](CCCNC(=N)N)C(=O)N[C@H]1CSSC[C@H](NC(=O)[C@H](CCCNC(=N)N)NC(=O)[C@@H]3CSSC[C@H](NC(=O)[C@H]([C@@H](C)CC)NC1=O)C(=O)NCC(=O)N[C@@H](CCCNC(=N)N)C(=O)NCC(=O)N[C@@H]([C@@H](C)CC)C(=O)N3)C(=O)N[C@@H]([C@@H](C)CC)C(=O)N2` [RC-101, R9K-Retrocyclin], for which, in the data set on human red blood cells, the “Hemagglutination seen at a concentration of (lowest concentration that caused hemagglutination)” value is more than 200 µg/mL and the “hemagglutination compared with retrocyclin” value is “much less hemagglutination than retrocyclin; also recorded: less hemagglutination than retrocyclin-1 or retrocyclin-2”. For the same compound, in the data set on CD4+ PBMC, the “cytotoxicity (trypan blue exclusion)” value is listed as “neither 20 μg/ml retrocyclin nor RC-101 were cytotoxic”. For the same compound, the “protection against HSV-1” value in the data set on HSV-1 is listed as “modestly protective”. Moreover, in the data set on HIV-1 strain JR-CSF, the “formation of HIV-1 proviral DNA” value is “inhibited the formation of HIV-1 proviral DNA”.
